Source: ChEMBL document CHEMBL1759950, “Design, synthesis and cytotoxic activities of novel β-amino alcohol derivatives” (Bioorg Med Chem Lett, 2011)

Key:
Assay type in all cases: functional, cell-based
HL-60 = assay: Cytotoxicity against human HL60 cells by MTT assay
SMMC-7721 = assay: Cytotoxicity against human SMMC7721 cells by MTT assay
A549 = assay: Cytotoxicity against human A549 cells by MTT assay
MCF7 = assay: Cytotoxicity against human MCF7 cells by MTT assay
SW480 = assay: Cytotoxicity against human SW480 cells by MTT assay

Compound | IC50 (HL-60) [µM] | IC50 (SMMC-7721) [µM] | IC50 (A549) [µM] | IC50 (MCF7) [µM] | IC50 (SW480) [µM]
OC[C@H](Cc1c[nH]c2ccccc12)NCc1c2ccccc2cc2ccccc12 | > 40 | > 40 | > 40 | > 40 | > 40
CC(C)(O)[C@H](Cc1c[nH]c2ccccc12)NCc1c2ccccc2cc2ccccc12 | 9.55 | 13.4 | 11 | 12.5 | 11.7
CCC(O)(CC)[C@H](Cc1c[nH]c2ccccc12)NCc1c2ccccc2cc2ccccc12 | 12.2 | 13 | 11.6 | 24.3 | > 40
CCCC(O)(CCC)[C@H](Cc1c[nH]c2ccccc12)NCc1c2ccccc2cc2ccccc12 | 13.2 | 17.3 | 10.9 | 23.9 | > 40
CCCCC(O)(CCCC)[C@H](Cc1c[nH]c2ccccc12)NCc1c2ccccc2cc2ccccc12 | > 40 | > 40 | > 40 | > 40 | > 40
Cn1cc(C[C@@H](CO)NCc2c3ccccc3cc3ccccc23)c2ccccc21 | 4.48 | 15 | 16.5 | 16.6 | 13.5
Cn1cc(C[C@H](NCc2c3ccccc3cc3ccccc23)C(C)(C)O)c2ccccc21 | 4.78 | 15.5 | 11.8 | 15.2 | 15.1
CCC(O)(CC)[C@H](Cc1cn(C)c2ccccc12)NCc1c2ccccc2cc2ccccc12 | > 40 | > 40 | > 40 | > 40 | > 40
CCCC(O)(CCC)[C@H](Cc1cn(C)c2ccccc12)NCc1c2ccccc2cc2ccccc12 | > 40 | > 40 | > 40 | > 40 | > 40
CCCCC(O)(CCCC)[C@H](Cc1cn(C)c2ccccc12)NCc1c2ccccc2cc2ccccc12 | > 40 | > 40 | > 40 | > 40 | > 40
CCn1cc(C[C@@H](CO)NCc2c3ccccc3cc3ccccc23)c2ccccc21 | 6.18 | 17.1 | 16.5 | 14.9 | 17.4
CCn1cc(C[C@H](NCc2c3ccccc3cc3ccccc23)C(C)(C)O)c2ccccc21 | 5.44 | 13.6 | 15 | 13.9 | 17.6
CCn1cc(C[C@H](NCc2c3ccccc3cc3ccccc23)C(O)(CC)CC)c2ccccc21 | > 40 | > 40 | > 40 | > 40 | > 40
CCCC(O)(CCC)[C@H](Cc1cn(CC)c2ccccc12)NCc1c2ccccc2cc2ccccc12 | > 40 | > 40 | > 40 | > 40 | > 40
CCCCC(O)(CCCC)[C@H](Cc1cn(CC)c2ccccc12)NCc1c2ccccc2cc2ccccc12 | > 40 | > 40 | > 40 | > 40 | > 40
CC(=O)N(Cc1c2ccccc2cc2ccccc12)[C@H](CO)Cc1c[nH]c2ccccc12 | 3.64 | 14.1 | 15.2 | 16.1 | 17.3
CC(=O)N(Cc1c2ccccc2cc2ccccc12)[C@@H](Cc1c[nH]c2ccccc12)C(C)(C)O | 6.49 | 12 | 14.5 | 15.6 | 17.2
O=C(c1ccccc1)N(Cc1c2ccccc2cc2ccccc12)[C@H](CO)Cc1c[nH]c2ccccc12 | 7.03 | 20.7 | 13.2 | 17.4 | 30.7
CC(C)(O)[C@H](Cc1c[nH]c2ccccc12)N(Cc1c2ccccc2cc2ccccc12)C(=O)c1ccccc1 | > 40 | > 40 | > 40 | > 40 | > 40
